# In patent publication US20130030017A1, “QUINOLINE DERIVATIVES AS ANTIBACTERIAL AGENTS” (priority 2005, published 2013):
# Legend:
# [1] = system: Streptococcus pneumoniae (ATCC6305); assay: Microtitre plate assay, IC90 determination (SPN 6305); type: cell-based; details: 90% inhibitory concentration for bacterial growth, 37° C., resazurin fluorescence; for IC90 SPN 6305: 24 hours; for IC90: Streptococcus pneumoniae, ATCC6305, 24 h
# Procedure: (§1) The bacteria used in this study were grown overnight in flasks containing 100 ml Mueller-Hinton Broth (Becton Dickinson—cat. no. 275730) in sterile de-ionized water, with shaking, at 37° C. Stocks (0.5 ml/tube) were stored at −70° C. until use. Bacteria titrations were performed in microtiter plates and colony forming units (CFUs) were determined. In general, an inoculum level of approximately 100 CFUs was used for susceptibility testing.
# (§2) Flat-bottom, sterile 96-well plastic microtiter plates were filled with 180 μl of sterile deionized water, supplemented with 0.25% BSA. Subsequently, stock solutions (7.8× final test concentration) of compounds were added in 45 μl volumes in column 2 Serial five-fold dilutions (45 μl in 180 μl) were made directly in the microtiter plates from column 2 to reach column 11. Untreated control samples with (column 1) and without (column 12) inoculum were included in each microtiter plate. Depending on the bacteria type, approximately 10 to 60 CFU per well of bacteria inoculum (100 TCID50), in a volume of 100 μl in 2.8× Mueller-Hinton broth medium, was added to the rows A to H, except column 12. The same volume of broth medium without inoculum was added to column 12 in row A to H. The cultures were incubated at 37° C. for 24 hours under a normal atmosphere (incubator with open air valve and continuous ventilation). At the end of incubation, one day after inoculation, the bacterial growth was quantitated fluorometrically. Therefore resazurin (0.6 mg/ml) was added in a volume of 20 μl to all wells 3 hours after inoculation, and the plates were re-incubated overnight. A change in colour from blue to pink indicated the growth of bacteria. The fluorescence was read in a computer-controlled fluorometer (Cytofluor Biosearch) at an excitation wavelength of 530 nm and an emission wavelength of 590 nm. The % growth inhibition achieved by the compounds was calculated according to standard methods. The IC90 (expressed in μg/ml) was defined as the 90% inhibitory concentration for bacterial growth.
# [2] = system: Staphylococcus aureus (ATCC29213); assay: Microtitre plate assay, IC90 determination (STA 29213); type: cell-based; details: 90% inhibitory concentration for bacterial growth, 37° C., resazurin fluorescence; for IC90 STA 29213: 24 hours; for IC90: Staphylococcus aureus, ATCC29213, 24 h
# Procedure: as §1, §2
# [3] = system: Pseudomonas aeruginosa (ATCC27853); assay: Microtitre plate assay, IC90 determination (PAE 27853); type: cell-based; details: 90% inhibitory concentration for bacterial growth, 37° C., resazurin fluorescence; for IC90 PAE 27853: 24 hours; for IC90: Pseudomonas aeruginosa, ATCC27853, 24 h
# Procedure: as §1, §2
# [4] = system: Streptococcus pyogens (ATCC8668); assay: Microtitre plate assay, IC90 determination (SPY 8668); type: cell-based; details: 90% inhibitory concentration for bacterial growth, 37° C., resazurin fluorescence; for IC90 SPY 8668: 24 hours; for IC90: Streptococcus, ATCC8668, 24 h
# Procedure: as §1, §2
# [5] = system: Enterococcus faecalis (ATCC29212); assay: Microtitre plate assay, IC90 determination (EFA 29212); type: cell-based; details: 90% inhibitory concentration for bacterial growth, 37° C., resazurin fluorescence; for IC90 EFA 29212: 24 hours; for IC90: Enterococcus faecalis, ATCC29212, 24 h
# Procedure: as §1, §2
# [6] = system: methicilline resistant Staphylococcus aureus (MRSA) (a clinical isolate from the University of Antwerp); assay: Microtitre plate assay, IC90 determination (STA RMETH); type: cell-based; details: 90% inhibitory concentration for bacterial growth, 37° C., 24 hours, resazurin fluorescence
# Procedure: as §1, §2
IC90 SPN 6305 [1],IC90 STA 29213 [2],IC90 PAE 27853 [3],IC90 SPY 8668 [4],melting point,IC90 EFA 29212 [5],IC90 [1],IC90 [4],IC90 [5],IC90 [3],IC90 [2],SMILES,IC90 STA RMETH [6]
2.1 µg/mL,1.9 µg/mL,1.9 µg/mL,1.9 µg/mL,142 °C,1.9 µg/mL,,,,,,COc1ccc(CCC(O)(CCN(C)C)C(c2ccc(Cl)cc2)c2cc3cc(Br)ccc3nc2OC)cc1 (stereo not drawn) [Compound 21],
,10.1 µg/mL,10.1 µg/mL,,94 °C,,2.3 µg/mL,10.1 µg/mL,10.1 µg/mL,,,CCOCCOCCOc1nc2ccc(Br)cc2cc1C(c1ccccc1)C(O)(CCc1ccccc1)CCN(C)C (stereo not drawn) [Compound 43],
4.8 µg/mL,23.8 µg/mL,,,156 °C,,,42.4 µg/mL,53.4 µg/mL,53.4 µg/mL,,COc1nc2cccc(Br)c2cc1C(c1ccccc1)C(O)(CCc1ccccc1)CCN(C)C (stereo not drawn) [Compound 5],
,,,,134 °C,,0.3 µg/mL,,,,2.9 µg/mL,CNCCC(O)(CCc1ccc(F)cc1)C(c1ccccc1)c1cc2ccccc2nc1OC (stereo not drawn) [Compound 37],
1.8 µg/mL,1.8 µg/mL,45.1 µg/mL,45.1 µg/mL,,56.8 µg/mL,,,,,,COc1nc2ccc(Br)cc2cc1C(c1ccc(Cl)cc1)C(O)(CCc1ccccc1)CCN(C)C (stereo not drawn) [Compound 70],12.7 µg/mL
,,,,140 °C,,0.3 µg/mL,,,,1.7 µg/mL,CNCCC(O)(CCc1ccc(F)cc1)C(c1ccccc1)c1cc2cc(Br)ccc2nc1OC (stereo not drawn) [Compound 39],
,,,,172 °C,,1.7 µg/mL,,,,24.5 µg/mL,COc1nc2ccc(Cl)cc2cc1C(c1ccccc1)C(O)(CCc1ccccc1)CCN(C)C (stereo not drawn) [Compound 9],
,,,7.4 µg/mL,142 °C,,1.9 µg/mL,,37.2 µg/mL,18.7 µg/mL,9.4 µg/mL,COc1nc2ccc(C)cc2cc1C(c1ccccc1)C(O)(CCc1ccccc1)CCN(C)C (stereo not drawn) [Compound 1],
0.8 µg/mL,1.7 µg/mL,43.5 µg/mL,1.7 µg/mL,,9.7 µg/mL,,,,,,COc1nc2ccc(Br)cc2cc1C(c1ccc(C)cc1)C(O)(CCc1ccccc1)CCN(C)C (stereo not drawn) [Compound 66],12.3 µg/mL
1.7 µg/mL,8.5 µg/mL,,,126 °C,,,,,,,COc1nc2cccc(Br)c2cc1C(c1ccccc1)C(O)(CCc1ccccc1)CCN(C)C (stereo not drawn) [Compound 6],

SMILES,IC90 SPN 6305 [1],IC90 STA 29213 [2],IC90 PAE 27853 [3],IC90 SPY 8668 [4],melting point,IC90 EFA 29212 [5],IC90 [1],IC90 [4],IC90 [5],IC90 [3],IC90 [2],IC90 STA RMETH [6]
COc1nc2ccc(Br)cc2cc1C(c1ccccc1)C(O)(CCc1ccc(F)c(F)c1)CCN(C)C (racemic) [Compound 51],0.4 µg/mL,1.8 µg/mL,9.0 µg/mL,5.7 µg/mL,,10.1 µg/mL,,,,,,11.4 µg/mL
